According to ChEMBL document CHEMBL1137749, “Antifungal unsaturated cyclic Mannich ketones and amino alcohols: study of mechanism of action” (2009):
In brackets after ≈: the same amount, converted by molar mass. Activity calls are given as the source filed them. The calls are words filed in the database; no cut-off is given here.

How the values were obtained:
Pichia kudriavzevii = test: Antifungal activity against Candida krusei ATCC 30068 after 48 hrs by macro tube dilution method; format: functional; details: ATCC 30068, 48 h
Saccharomyces cerevisiae = test: Antifungal activity against Saccharomyces cerevisiae after 48 hrs by macro tube dilution method; format: functional
Candida albicans [1] = test: Antifungal activity against Candida albicans ATCC 90028 assessed as number of fungal cells with pseudohyphae out of 100 cells at 0.5 time MIC after 0 to 6 hrs by light microscopy; format: functional
Candida albicans [2] = test: Antifungal activity against Candida albicans ATCC 90028 assessed as number of fungal cells without pseudohyphae out of 100 cells at 0.5 time MIC after 0 to 6 hrs by light microscopy; format: functional
Candida parapsilosis = test: Antifungal activity against Candida parapsilosis ATCC 22019 after 48 hrs by macro tube dilution method; format: functional; details: Lodderomyces parapsilosis, ATCC 22019, 48 h
Candida albicans [3] = test: Antifungal activity against Candida albicans ATCC 90028 after 48 hrs by macro tube dilution method; format: functional; details: ATCC 90028, 48 h
Candida albicans [4] = test: Antifungal activity against Candida albicans ATCC 90028 assessed as inhibition of fungal ergosterol synthesis at 0.5 times MIC after 16 hrs by UV spectrophotometry; format: functional, organism-based
Nakaseomyces glabratus = test: Antifungal activity against Candida glabrata ATCC 3916 after 48 hrs by macro tube dilution method; format: functional; details: ATCC 3916, 48 h
Aspergillus sp. = test: Antifungal activity against Aspergillus sp. after 48 hrs by macro tube dilution method; format: functional
Candida albicans [5] = test: Antifungal activity against Candida albicans ATCC 90028 assessed as increase in 104 kDa fungal protein at 0.5 time MIC after 1 hr by electrophoresis-based microchip technology; format: functional, organism-based
Candida albicans [6] = test: Antifungal activity against Candida albicans ATCC 90028 assessed as increase in 104 kDa fungal protein at 2 times MIC after 1 hr by electrophoresis-based microchip technology; format: functional, organism-based
Candida albicans [7] = test: Antifungal activity against Candida albicans ATCC 90028 assessed as increase in 147 kDa fungal protein at 0.5 time MIC after 1 hr by electrophoresis-based microchip technology; format: functional, organism-based
Candida albicans [8] = test: Antifungal activity against Candida albicans ATCC 90028 assessed as increase in 117 kDa fungal protein at 2 times MIC after 1 hr by electrophoresis-based microchip technology; format: functional, organism-based
Candida albicans [9] = test: Antifungal activity against Candida albicans ATCC 90028 assessed as increase in 124 kDa fungal protein at 2 times MIC after 1 hr by electrophoresis-based microchip technology; format: functional, organism-based
Candida albicans [10] = test: Antifungal activity against Candida albicans ATCC 90028 assessed as increase in 147 kDa fungal protein at 2 times MIC after 1 hr by electrophoresis-based microchip technology; format: functional, organism-based
Candida albicans [11] = test: Antifungal activity against Candida albicans ATCC 90028 assessed as increase in 117 kDa fungal protein at 0.5 time MIC after 1 hr by electrophoresis-based microchip technology; format: functional, organism-based
Candida albicans [12] = test: Antifungal activity against Candida albicans ATCC 90028 assessed as increase in 124 kDa fungal protein at 0.5 time MIC after 1 hr by electrophoresis-based microchip technology; format: functional, organism-based
Candida albicans [13] = test: Antifungal activity against Candida albicans ATCC 90028 assessed as inhibition of fungal ergosterol synthesis at 1.56 ug/mL after 16 hrs by UV spectrophotometry; format: functional, organism-based
Candida albicans [14] = test: Antifungal activity against Candida albicans ATCC 90028 assessed as inhibition of fungal ergosterol synthesis at 25 ug/mL after 16 hrs by UV spectrophotometry; format: functional, organism-based
Rattus norvegicus = organism: Rattus norvegicus; test: Inhibition of lactate dehydrogenase in Wistar rat kidney at 1.5 times MIC relative to control
Candida albicans [15] = test: Antifungal activity against Candida albicans ATCC 90028 assessed as changes in fungal protein expression at 0.5 time MIC after 1 hr by electrophoresis-based microchip technology; format: functional, organism-based
Candida albicans [16] = test: Inhibition of chitin synthase in Candida albicans ATCC 90028 at 1.5 times MIC by liquid scintillation analyzer relative to nikkomycin
Candida albicans [17] = test: Antifungal activity against Candida albicans ATCC 90028 assessed as changes in fungal protein expression at 2 times MIC after 1 hr by electrophoresis-based microchip technology; format: functional, organism-based

SMILES | MIC (Pichia kudriavzevii) [µg/mL] | MIC (Saccharomyces cerevisiae) [µg/mL] | Activity (Candida albicans [1]) | Activity (Candida albicans [2]) | MIC (Candida parapsilosis) [µg/mL] | MIC (Candida albicans [3]) [µg/mL] | MIC (Nakaseomyces glabratus) [µg/mL] | MIC (Aspergillus sp.) [µg/mL] | Activity (Candida albicans [5]) | Activity (Candida albicans [6]) | Activity (Candida albicans [7]) | Activity (Candida albicans [8]) | Activity (Candida albicans [9]) | Activity (Candida albicans [10]) | Activity (Candida albicans [11]) | Activity (Candida albicans [12]) | further results
COc1ccccc1/C=C1\CCC(CN2CCOCC2)C1=O (stereo unspecified) | 3.12 (≈ 10.4 µM) | 6.25 (≈ 20.7 µM) | 9 | 81 | 12.5 (≈ 41.5 µM) | 3.12 (≈ 10.4 µM) | 12.5 (≈ 41.5 µM) | > 200 | – | – | – | – | – | – | – | – | Activity (Candida albicans [4]): inactive
COc1ccc(/C=C2\CCC(CN3CCCCC3)C2=O)cc1 (stereo unspecified) | 12.5 (≈ 41.7 µM) | 3.12 (≈ 10.4 µM) | – | – | 6.25 (≈ 20.9 µM) | 12.5 (≈ 41.7 µM) | 6.25 (≈ 20.9 µM) | 100 (≈ 334 µM) | Active | Active | Active | Active | Active | Active | Active | Active | –
OC(Cn1cncn1)(Cn1cncn1)c1ccc(F)cc1F | – | – | – | – | – | – | – | – | – | – | – | – | – | – | – | – | Activity (Candida albicans [13]): inactive
COc1ccc(/C=C2\CC[C@@H](CN3CCCCC3)[C@@H]2O)cc1 (relative stereo) | 100 (≈ 332 µM) | 100 (≈ 332 µM) | – | – | > 200 | 100 (≈ 332 µM) | > 200 | 200 (≈ 664 µM) | Active | inactive | inactive | Active | Active | inactive | Active | Active | –
O=C1/C(=C/c2ccccc2)CCCCC1CN1CCCCC1 (stereo unspecified) | 100 (≈ 336 µM) | 100 (≈ 336 µM) | 47 | 39 | 200 (≈ 672 µM) | 50 (≈ 168 µM) | 100 (≈ 336 µM) | 100 (≈ 336 µM) | – | – | – | – | – | – | – | – | Activity (Candida albicans [14]): inactive; inhibition (Rattus norvegicus): inactive; Activity (Candida albicans [15]): inactive; inhibition (Candida albicans [16]): 24%; Activity (Candida albicans [17]): inactive
C[C@@H]1[C@H](O)[C@@H](C)/C=C/C=C/C=C/C=C/C=C/C=C/C=C/[C@H](O[C@@H]2O[C@H](C)[C@@H](O)[C@H](N)[C@@H]2O)C[C@@H]2O[C@](O)(C[C@@H](O)C[C@@H](O)[C@H](O)CC[C@@H](O)C[C@@H](O)CC(=O)O[C@H]1C)C[C@H](O)[C@H]2C(=O)O [AMPHOTERICIN B] | – | – | 18 | 77 | – | – | – | – | – | – | – | – | – | – | – | – | –
O=C1/C(=C/c2ccccc2)CCC1CN1CCc2ccccc2C1 (stereo unspecified) | 12.5 (≈ 39.4 µM) | 1.56 (≈ 4.91 µM) | – | – | 12.5 (≈ 39.4 µM) | 12.5 (≈ 39.4 µM) | 6.25 (≈ 19.7 µM) | 200 (≈ 630 µM) | Active | Active | Active | Active | Active | Active | Active | Active | –
COc1cccc(/C=C2\CCC(CN3CCOCC3)C2=O)c1 (stereo unspecified) | 3.12 (≈ 10.4 µM) | 1.56 (≈ 5.18 µM) | – | – | 3.12 (≈ 10.4 µM) | 3.12 (≈ 10.4 µM) | 3.12 (≈ 10.4 µM) | 50 (≈ 166 µM) | – | – | – | – | – | – | – | – | Activity (Rattus norvegicus): inactive; Activity (Candida albicans [13]): inactive; inhibition (Candida albicans [16]): inactive
